Source: PubChem BioAssay AID248 (DTP/NCI, 2004)
Where “and” joins values, the source holds several entries; their conditions need not be identical. Equal entries are not always repeated. Toxic doses and inconclusive results are not listed. No stated cut-off is given here; in the data, active means T/C of 150% or more; inactive means T/C below 125%.

Tested on: L1210 leukemia ip in BDF1 mice, survival T/C
Assay: NCI In Vivo Anticancer Drug Screen. Data for tumor model L1210 Leukemia (intraperitoneal) in B6D2F1 (BDF1) mice
Settings: endpoint: mean survival time, higher = longer survival
Procedure, shortened: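 Tumor cells were implanted, animals were treated, and survival was followed. The result divides the treated measurement by the vehicle-control measurement.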

[1] = dose: 100.0 mg/kg/injection, schedule: Q01DX009 (ip), vehicle: Klucel (hydroxypropylcellulose) (HPC)
[2] = dose: 100.0 mg/kg/injection, schedule: Q04DX003 (ip), vehicle: saline

Measured: T/C

COC1CCCNC1CC(=O)Cn1cnc2cc3c(cc2c1=O)OCO3 (stereo not given)
inactive: dose: 18.75 mg/kg/injection, schedule: Q01DX009 (ip), vehicle: saline 92 % of control | dose: 37.5 mg/kg/injection, schedule: Q01DX009 (ip), vehicle: saline 111 % of control | dose: 37.5 mg/kg/injection, schedule: Q04DX003 (ip), vehicle: saline 98 % of control | dose: 75.0 mg/kg/injection, schedule: Q01DX001 (ip), vehicle: saline 101 % of control | dose: 75.0 mg/kg/injection, schedule: Q01DX009 (ip), vehicle: saline 93 % of control | dose: 75.0 mg/kg/injection, schedule: Q04DX003 (ip), vehicle: saline 104 % of control | dose: 150.0 mg/kg/injection, schedule: Q01DX001 (ip), vehicle: saline 107 % of control | dose: 150.0 mg/kg/injection, schedule: Q04DX003 (ip), vehicle: saline 100 % of control

CCCC1COCC(CC)/C1=N\Nc1ccc([N+](=O)[O-])cc1[N+](=O)[O-] (stereo not given)
inactive: dose: 100.0 mg/kg/injection, schedule: Q01DX001 (ip), vehicle: Klucel (hydroxypropylcellulose) (HPC) 91 % of control | dose: 200.0 mg/kg/injection, schedule: Q01DX001 (ip), vehicle: Klucel (hydroxypropylcellulose) (HPC) 94 % of control | dose: 400.0 mg/kg/injection, schedule: Q01DX001 (ip), vehicle: Klucel (hydroxypropylcellulose) (HPC) 91 % of control

CC(=O)c1cccc(N)c1
inactive: [1] 94 % of control | [2] 95 % of control | dose: 200.0 mg/kg/injection, schedule: Q01DX009 (ip), vehicle: Klucel (hydroxypropylcellulose) (HPC) 93 % of control | dose: 200.0 mg/kg/injection, schedule: Q04DX003 (ip), vehicle: saline 95 % of control | dose: 400.0 mg/kg/injection, schedule: Q01DX009 (ip), vehicle: Klucel (hydroxypropylcellulose) (HPC) 93 % of control | dose: 400.0 mg/kg/injection, schedule: Q04DX003 (ip), vehicle: saline 88 % of control

COC(=O)C1(C)CCCC2(C)C3CCC4(C)CC3(CCC12)OC4C (stereo not given)
inactive: dose: 100.0 mg/kg/injection, schedule: Q04DX002 (ip), vehicle: saline with Tween-80 95 % of control | dose: 200.0 mg/kg/injection, schedule: Q04DX002 (ip), vehicle: saline with Tween-80 100 % of control | dose: 400.0 mg/kg/injection, schedule: Q04DX002 (ip), vehicle: saline with Tween-80 89 % of control

CN1CCN=C(c2ccccc2)c2cc(Cl)ccc21
inactive: dose: 6.25 mg/kg/injection, schedule: Q01DX009 (ip), vehicle: saline 110 % of control | dose: 12.5 mg/kg/injection, schedule: Q01DX009 (ip), vehicle: saline 101 % of control | dose: 25.0 mg/kg/injection, schedule: Q01DX009 (ip), vehicle: saline 94 % of control | dose: 25.0 mg/kg/injection, schedule: Q04DX003 (ip), vehicle: saline 93 % of control | dose: 50.0 mg/kg/injection, schedule: Q01DX009 (ip), vehicle: saline 100 % of control | dose: 50.0 mg/kg/injection, schedule: Q04DX003 (ip), vehicle: saline 93 % of control | dose: 100.0 mg/kg/injection, schedule: Q01DX009 (ip), vehicle: saline 95 % of control | [2] 98 % of control

CC(=O)OC1C(C=C(C)C)OC2CC3(C)C4=C(CCC3(C)C2C1C)C1(C)CCC(O)C(C)(C)C1CC4 (stereo not given)
inactive: dose: 20.0 mg/kg/injection, schedule: Q01DX001 (sc), vehicle: steriod suspending solution 104 % of control | dose: 40.0 mg/kg/injection, schedule: Q01DX001 (sc), vehicle: steriod suspending solution 102 % of control | dose: 50.0 mg/kg/injection, schedule: Q01DX001 (sc), vehicle: steriod suspending solution 101 % of control | dose: 80.0 mg/kg/injection, schedule: Q01DX001 (sc), vehicle: steriod suspending solution 102 % of control | dose: 100.0 mg/kg/injection, schedule: Q01DX001 (sc), vehicle: steriod suspending solution 92 % of control | dose: 160.0 mg/kg/injection, schedule: Q01DX001 (sc), vehicle: steriod suspending solution 102 % of control | dose: 200.0 mg/kg/injection, schedule: Q01DX001 (sc), vehicle: steriod suspending solution 97 % of control | dose: 400.0 mg/kg/injection, schedule: Q01DX001 (sc), vehicle: steriod suspending solution 106 % of control

Cc1cc(-c2cc(C)c(O)c(C(C)(C)C)c2)cc(C(C)(C)C)c1O
inactive: dose: 25.0 mg/kg/injection, schedule: Q04DX002 (ip), vehicle: gum acacia 95 % of control | dose: 50.0 mg/kg/injection, schedule: Q04DX002 (ip), vehicle: gum acacia 95 % of control | dose: 100.0 mg/kg/injection, schedule: Q04DX002 (ip), vehicle: gum acacia 91 % of control

O=C(O)CN(CC(=O)O)Cc1ccccc1
inactive: dose: 5.0 mg/kg/injection, schedule: Q01DX001 (ip), vehicle: saline 102 % of control | dose: 10.0 mg/kg/injection, schedule: Q01DX001 (ip), vehicle: saline 102 % of control | dose: 20.0 mg/kg/injection, schedule: Q01DX001 (ip), vehicle: saline 100 % of control | dose: 40.0 mg/kg/injection, schedule: Q01DX001 (ip), vehicle: saline 100 % of control

CCOC(=O)Nc1ccc(Cl)cc1Cl
inactive: dose: 100.0 mg/kg/injection, schedule: Q04DX003 (ip), vehicle: saline with Tween-80 97 % of control | dose: 200.0 mg/kg/injection, schedule: Q04DX003 (ip), vehicle: saline with Tween-80 105 % of control | dose: 400.0 mg/kg/injection, schedule: Q04DX003 (ip), vehicle: saline with Tween-80 87 % of control

CCC[CH2][Sn]([Br])([CH2]CCC)[CH2]CCC
inactive: dose: 3.13 mg/kg/injection, schedule: Q01DX009 (ip), vehicle: carboxymethylcellulose (CMC) 93 % of control and 103 % of control | dose: 6.25 mg/kg/injection, schedule: Q01DX009 (ip), vehicle: carboxymethylcellulose (CMC) 103 % of control (2×) and 104 % of control | dose: 6.25 mg/kg/injection, schedule: Q04DX003 (ip), vehicle: carboxymethylcellulose (CMC) 96 % of control | dose: 12.5 mg/kg/injection, schedule: Q01DX009 (ip), vehicle: carboxymethylcellulose (CMC) 93 % of control and 101 % of control and 103 % of control | dose: 12.5 mg/kg/injection, schedule: Q04DX002 (ip), vehicle: carboxymethylcellulose (CMC) 92 % of control and 103 % of control | dose: 12.5 mg/kg/injection, schedule: Q04DX003 (ip), vehicle: carboxymethylcellulose (CMC) 107 % of control | dose: 25.0 mg/kg/injection, schedule: Q04DX002 (ip), vehicle: carboxymethylcellulose (CMC) 93 % of control and 98 % of control

CCOC(=O)CNC(=O)Oc1cc(C)c(Cl)cc1C
inactive: dose: 100.0 mg/kg/injection, schedule: Q01DX001 (ip), vehicle: carboxymethylcellulose (CMC) 100 % of control and 110 % of control | dose: 100.0 mg/kg/injection, schedule: Q01DX009 (ip), vehicle: carboxymethylcellulose (CMC) 89 % of control | dose: 100.0 mg/kg/injection, schedule: Q04DX002 (ip), vehicle: carboxymethylcellulose (CMC) 93 % of control and 96 % of control | dose: 100.0 mg/kg/injection, schedule: Q04DX003 (ip), vehicle: carboxymethylcellulose (CMC) 101 % of control and 90 % of control | dose: 200.0 mg/kg/injection, schedule: Q01DX001 (ip), vehicle: carboxymethylcellulose (CMC) 106 % of control and 109 % of control | dose: 200.0 mg/kg/injection, schedule: Q01DX009 (ip), vehicle: carboxymethylcellulose (CMC) 95 % of control | dose: 200.0 mg/kg/injection, schedule: Q04DX002 (ip), vehicle: carboxymethylcellulose (CMC) 98 % of control and 99 % of control | dose: 200.0 mg/kg/injection, schedule: Q04DX003 (ip), vehicle: carboxymethylcellulose (CMC) 94 % of control and 103 % of control | dose: 400.0 mg/kg/injection, schedule: Q01DX001 (ip), vehicle: carboxymethylcellulose (CMC) 102 % of control and 103 % of control | dose: 400.0 mg/kg/injection, schedule: Q01DX009 (ip), vehicle: carboxymethylcellulose (CMC) 100 % of control | dose: 400.0 mg/kg/injection, schedule: Q04DX002 (ip), vehicle: carboxymethylcellulose (CMC) 95 % of control and 99 % of control | dose: 400.0 mg/kg/injection, schedule: Q04DX003 (ip), vehicle: carboxymethylcellulose (CMC) 97 % of control and 87 % of control

C[NH-].C[NH-].C[NH-].C[NH-].[Cl][Rh][Cl]
inactive: [1] 97 % of control | dose: 100.0 mg/kg/injection, schedule: Q04DX003 (ip), vehicle: Klucel (hydroxypropylcellulose) (HPC) 86 % of control | dose: 200.0 mg/kg/injection, schedule: Q04DX003 (ip), vehicle: Klucel (hydroxypropylcellulose) (HPC) 94 % of control | dose: 400.0 mg/kg/injection, schedule: Q04DX003 (ip), vehicle: Klucel (hydroxypropylcellulose) (HPC) 92 % of control

Cc1ccc(C(=O)C=Nc2ccccc2[N+](=O)[O-])cc1
inactive: dose: 12.5 mg/kg/injection, schedule: Q04DX002 (ip), vehicle: Klucel (hydroxypropylcellulose) (HPC) 105 % of control | dose: 25.0 mg/kg/injection, schedule: Q04DX002 (ip), vehicle: Klucel (hydroxypropylcellulose) (HPC) 108 % of control | dose: 50.0 mg/kg/injection, schedule: Q04DX002 (ip), vehicle: Klucel (hydroxypropylcellulose) (HPC) 123 % of control

CCN(CC)C(=O)C(Br)C(Br)C(=O)N(CC)CC (stereo not given)
inactive: dose: 100.0 mg/kg/injection, schedule: Q04DX003 (ip), vehicle: acetone 100 % of control | dose: 200.0 mg/kg/injection, schedule: Q04DX003 (ip), vehicle: acetone 100 % of control | dose: 400.0 mg/kg/injection, schedule: Q04DX003 (ip), vehicle: acetone 92 % of control
